Values quoted from earlier work in patent publication US12128066B2, “Product for treating skin fungus and its micronized preparation method” (priority 2021, dated 2024).

Details: in water or organic solvents

Compound: S=[Se]=S [Selenium disulfide]
- Solubility: almost insoluble
